# Source: patent US11026943B2, “Aminoquinoline derivatives and uses thereof” (UNIVERSITY OF DELHI, priority 2012, dated 2021)
# Target: Nurr1 LBD (Mus musculus, UniProt Q06219)
# Test: Filter binding assay with [3H]-CQ (saturation and competition)
# Conditions: 500 nM [3H]-CQ
# Text: The basal level of transcriptional activity was normalized to 1. The bars represent means±SEM from three independent experiments. (FIG. 13C) Effect of Nurr1 specific siRNA on Nurr1 LBD's transactivation activity. […] (FIG. 13D) Human neuroblastoma SK-N-BE(2)C cells were transfected with the N-terminal flag-tagged SRC1 or SRC3 and the C-terminal myc-tagged full-length Nurr1. […] Cell lysates were immunoprecipitated (IP) using anti-flag antibodies and analyzed by immunoblotting (IB) using anti-myc antibodies. […] The fold induction was derived by comparing each luciferase activity to basal level obtained by non-SRC transfection. […] The concentrations (04) are shown next to the arrows. […] Specific binding was calculated as the difference of total and non-specific binding. The insert indicates Scatchard analysis of the specific binding. […] The data represent the average of triplicate from three independent experiments. All graphs, Kd, Ki, and Bmax values were generated using the non-linear regression program Prism version 5.02.
# GF/C filters were wet with in binding buffer and placed on a 48-place filter manifold. […] Filters were washed with 4×100 ml binding buffer, dried, and mixed with 5 ml Scintiverse BD (Fisher) and radioactivity was determined in a Beckman LS6000SC liquid scintillation counter. […] The mixture was applied to GF/C filter and filter was washed and counted as described above.
# Sequence of Nurr1 LBD (Q06219 328-598): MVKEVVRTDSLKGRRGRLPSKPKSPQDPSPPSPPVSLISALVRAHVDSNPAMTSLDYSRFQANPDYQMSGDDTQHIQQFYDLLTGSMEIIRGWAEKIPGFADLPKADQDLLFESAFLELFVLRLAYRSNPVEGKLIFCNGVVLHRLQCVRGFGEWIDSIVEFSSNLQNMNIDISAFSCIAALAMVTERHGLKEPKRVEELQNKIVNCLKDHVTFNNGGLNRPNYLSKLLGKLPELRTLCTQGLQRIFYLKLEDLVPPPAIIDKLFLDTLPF
smiles,measurement,value
"CCN(CC)Cc1cc(Nc2ccnc3cc(Cl)ccc23)ccc1O [AQ, amodiaquine]",Ki,246 nM
